Results from US20090069301A1, “Acridine and Quinoline Derivatives as Sirtuin Modulators” (Sirtris Pharmaceuticals, Inc., priority 2005, published 2009).

target: T1, SIRT1 (Homo sapiens, UniProt Q96EB6); test: Fluorescence polarization or mass spectrometry based assay to identify modulators of SIRT1 activity (p53-based peptide deacetylation); assay type: biochemical; settings: activation of SIRT1, Table 4; read-out: ED50 (the source's name);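 note: recombinant His-tagged human SIRT1 deacetylating p53-derived acetylated peptide, detected by fluorescence polarization after trypsin cleavage, signal inversely tracking deacetylase activity, compared against activity without test compound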
T1 sequence (Q96EB6 1-747): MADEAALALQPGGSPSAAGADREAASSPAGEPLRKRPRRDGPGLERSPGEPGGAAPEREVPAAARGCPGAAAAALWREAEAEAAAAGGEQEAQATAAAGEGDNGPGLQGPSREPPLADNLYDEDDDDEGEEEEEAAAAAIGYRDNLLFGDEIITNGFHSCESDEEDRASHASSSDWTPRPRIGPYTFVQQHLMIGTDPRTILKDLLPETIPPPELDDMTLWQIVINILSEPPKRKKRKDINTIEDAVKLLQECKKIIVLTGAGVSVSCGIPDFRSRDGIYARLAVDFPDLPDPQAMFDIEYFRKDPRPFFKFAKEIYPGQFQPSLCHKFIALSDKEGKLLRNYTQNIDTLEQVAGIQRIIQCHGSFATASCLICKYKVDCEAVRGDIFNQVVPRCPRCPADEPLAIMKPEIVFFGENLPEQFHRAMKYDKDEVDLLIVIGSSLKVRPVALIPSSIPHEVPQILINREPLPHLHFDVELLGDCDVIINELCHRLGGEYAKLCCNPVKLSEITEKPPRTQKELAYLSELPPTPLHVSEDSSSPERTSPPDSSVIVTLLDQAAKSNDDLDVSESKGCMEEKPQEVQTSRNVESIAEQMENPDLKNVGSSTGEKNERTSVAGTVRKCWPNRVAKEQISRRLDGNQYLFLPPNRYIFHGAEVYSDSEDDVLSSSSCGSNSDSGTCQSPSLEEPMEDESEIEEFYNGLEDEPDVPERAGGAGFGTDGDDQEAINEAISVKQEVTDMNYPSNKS

| SMILES | EC50 |
| --- | --- |
| Cc1ccc2nc(-c3ccco3)cc(C(=O)NCCCN3CCN(C)CC3)c2c1 [Compound 47] | > 150 µM |
| Cc1ccc2nc(-c3cccs3)cc(C(=O)NCCCN3CCN(C)CC3)c2c1 [Compound 18] | > 150 µM |
| Cc1ccc2nc(-c3ccco3)cc(C(=O)NCCCCN3CCN(C)CC3)c2c1 [Compound 17] | > 150 µM |
| Cc1ccc2nc(-c3ccco3)cc(C(=O)N(C)CCN(C)C)c2c1 [Compound 32] | > 150 µM |
| COc1cc(C(=O)NN(C)c2c3ccccc3nc3ccccc23)cc(OC)c1OC [Compound 154] | > 150 µM |
| c1ccc2c(c1)Oc1ccccc1C2n1nnc2ccccc21 [Compound 124] | > 150 µM |
| Cc1ccc2nc(-c3ccco3)cc(C(=O)NCCCN3CCOCC3)c2c1 [Compound 31] | > 150 µM |
| Cc1ccc2nc(-c3ccco3)cc(C(=O)N3CCOCC3)c2c1 [Compound 35] | > 150 µM |
| Cc1ccc2nc(-c3ccco3)cc(C(=O)N3CCCCC3)c2c1 [Compound 30] | > 150 µM |
| Cc1ccc2nc(-c3cccs3)cc(C(=O)N3CCCCC3)c2c1 [Compound 48] | > 150 µM |
| CC(C)c1cc(Nc2c3ccccc3nc3ccccc23)n(-c2ccccc2)n1 [Compound 131] | > 150 µM |
| COc1cc(C(=O)NNc2cc(-c3ccccc3)nc3ccccc23)cc(OC)c1OC [Compound 24] | > 150 µM |
| Cc1ccc2nc(-c3cccs3)cc(C(=O)N3CCN(C)CC3)c2c1 [Compound 49] | > 150 µM |
| COc1cc(-c2nnc(-c3c4ccccc4nc4ccccc34)o2)cc(OC)c1OC [Compound 137] | < 50 µM |
| Cc1ccc2nc(-c3cccs3)cc(C(=O)NCCN3CCOCC3)c2c1 [Compound 6] | < 50 µM |
| COc1cc(NCc2c3ccccc3nc3ccccc23)cc(OC)c1OC [Compound 127] | > 150 µM |
| Cc1ccc2nc(-c3cccs3)cc(C(=O)N3CCCN(C)CC3)c2c1 [Compound 50] | > 150 µM |
| Cc1ccc2nc(-c3cccs3)cc(C(=O)NCCCN3CCOCC3)c2c1 [Compound 53] | > 150 µM |
| Cc1ccc2nc(-c3cccs3)cc(C(=O)N(C)CCN(C)C)c2c1 [Compound 51] | > 150 µM |
| Cc1ccc2nc(-c3ccco3)cc(C(=O)NCCN(C)CCN(C)C)c2c1 [Compound 46] | > 150 µM |
| c1ccc(NNc2c3ccccc3nc3ccccc23)nc1 [Compound 121] | < 50 µM |
| Cc1ccc2nc(-c3ccco3)cc(C(=O)N3CCN(C)CC3)c2c1 [Compound 33] | > 150 µM |
| CC(C)c1cc(NCc2c3ccccc3nc3ccccc23)n(-c2ccccc2)n1 [Compound 125] | > 150 µM |
| O=C(NNc1cc(-c2ccccc2)nc2ccccc12)c1ccccn1 [Compound 22] | < 50 µM |
| COc1cc(C(=O)NNc2c3ccccc3nc3ccccc23)cc(OC)c1OC [Compound 3] | < 50 µM |

Results, then the compound that gave them:

| EC50 | SMILES |
| --- | --- |
| > 150 µM | Cc1ccc2nc(-c3cccs3)cc(C(=O)NCCN3CCCCC3)c2c1 [Compound 52] |
| < 50 µM | CN(NC(=O)c1ccncc1)c1c2ccccc2nc2ccccc12 [Compound 155] |
| < 50 µM | COc1ccc(C(=O)NNc2cc(-c3ccccc3)nc3ccccc23)cc1OC [Compound 26] |
| > 150 µM | CCCOc1cccc(-c2cc(C(=O)NCCN3CCOCC3)c3ccccc3n2)c1 [Compound 4] |
| < 50 µM | O=C(NNc1c2ccccc2nc2ccccc12)c1cccnc1 [Compound 11] |
| > 150 µM | Cc1ccc2nc(-c3ccccc3)cc(C(=O)NCCCN3CCCCC3)c2c1 [Compound 44] |
| > 150 µM | COc1ccccc1N1CCN(C(=O)c2c3ccccc3nc3ccccc23)CC1 [Compound 136] |
| > 150 µM | O=C(NNC(=O)c1c2ccccc2nc2ccccc12)c1cc(F)cc(F)c1 [Compound 134] |
| > 150 µM | O=C(Nc1ccccc1-n1cccc1)c1c2ccccc2nc2ccccc12 [Compound 129] |
| < 50 µM | O=C(NNc1cc(-c2ccccc2)nc2ccccc12)c1ccc(Cl)cc1 [Compound 23] |
| < 50 µM | COc1cc(C(=O)NNc2c3c(nc4ccccc24)CCCC3)cc(OC)c1OC [Compound 120] |
| > 150 µM | Cc1ccc(-c2cccc(NC(=O)c3c4ccccc4nc4ccccc34)c2)cc1C [Compound 130] |
| > 150 µM | Cc1ccc2nc(-c3ccco3)ccc2c1C(=O)NCCCN1CCCCC1 [Compound 20] |
| > 150 µM | CS(=O)(=O)c1ccc(F)c(NC(=O)c2c3ccccc3nc3ccccc23)c1 [Compound 135] |
| > 150 µM | CCCCc1ccc(NC(=O)c2c3c(nc4ccccc24)CCCC3)cc1 [Compound 160] |
| > 150 µM | O=C(Nc1c2c(nc3ccccc13)CCCC2)c1ccncc1 [Compound 157] |
| < 50 µM | O=C(NCc1ccncc1)c1cc(-c2ccsc2)nc2ccccc12 [Compound 1] |
| < 50 µM | CC(C)c1cc(NC(=O)c2c3ccccc3nc3ccccc23)n(-c2ccccc2)n1 [Compound 118] |
| > 150 µM | O=C(Nc1ccc(N2CCCCC2)cc1)c1c2ccccc2nc2ccccc12 [Compound 128] |
| > 150 µM | O=C(Nc1ccc2c(c1)OCO2)Nc1c2ccccc2nc2ccccc12 [Compound 153] |
| > 150 µM | CN(C)c1ccc(C(=O)NNc2cc(-c3ccccc3)nc3ccccc23)cc1 [Compound 25] |
| > 150 µM | Cc1ccc2nc(-c3cccs3)ccc2c1C(=O)NCCCN1CCCCC1 [Compound 21] |
| > 150 µM | Cc1ccc2nc(-c3ccccc3)cc(C(=O)NCCCN3CCN(C)CC3)c2c1 [Compound 45] |
| < 50 µM | O=C(NNc1c2ccccc2nc2ccccc12)c1ccncc1 [Compound 10] |
| > 150 µM | CCN(CC)S(=O)(=O)c1ccc(N2CCOCC2)c(NC(=O)c2cc(-c3ccccn3)nc3ccccc23)c1 [Compound 9] |
| > 150 µM | COc1cc(NC(=O)c2cc(-c3ccccc3)nc3ccccc23)cc(OC)c1OC [Compound 27] |
| > 150 µM | Cc1ccc2nc(-c3ccco3)cc(C(=O)NCCN3CCCCC3)c2c1 [Compound 34] |

same assay, conditions: inhibition of SIRT1, Table 5

| IC50 | SMILES |
| --- | --- |
| > 150 µM | Cc1ccc2nc(-c3ccccc3)cc(C(=O)NCCCCCN3CCCCC3)c2c1 [Compound 171] |
| > 150 µM | Cc1ccc2nc(-c3ccccc3)cc(C(=O)NCCCCCN3CCOCC3)c2c1 [Compound 170] |
| > 150 µM | Cc1ccc2nc(-c3ccccc3)cc(C(=O)NCCCN3CCOCC3)c2c1 [Compound 169] |
| > 150 µM | Cc1ccc2nc(-c3cccs3)cc(C(=O)N3CCOCC3)c2c1 [Compound 172] |
